According to ChEMBL document CHEMBL1134811, “Hydrophobicity, a physicochemical factor in the inhibition of the enzyme estrone sulfatase (ES)” (Bioorg Med Chem Lett, 2001):

What was measured:
[1] = Partition coefficient (logP); type: physicochemical; conditions: octanol/water
[2] = target: T1, Steryl-sulfatase (Homo sapiens) (UniProt P08842); test: Inhibitory activity against estrone sulfatase relative to 4-Methylcoumarin-7-O-sulfamate derivative (COUMATE)
T1 sequence (whole entry): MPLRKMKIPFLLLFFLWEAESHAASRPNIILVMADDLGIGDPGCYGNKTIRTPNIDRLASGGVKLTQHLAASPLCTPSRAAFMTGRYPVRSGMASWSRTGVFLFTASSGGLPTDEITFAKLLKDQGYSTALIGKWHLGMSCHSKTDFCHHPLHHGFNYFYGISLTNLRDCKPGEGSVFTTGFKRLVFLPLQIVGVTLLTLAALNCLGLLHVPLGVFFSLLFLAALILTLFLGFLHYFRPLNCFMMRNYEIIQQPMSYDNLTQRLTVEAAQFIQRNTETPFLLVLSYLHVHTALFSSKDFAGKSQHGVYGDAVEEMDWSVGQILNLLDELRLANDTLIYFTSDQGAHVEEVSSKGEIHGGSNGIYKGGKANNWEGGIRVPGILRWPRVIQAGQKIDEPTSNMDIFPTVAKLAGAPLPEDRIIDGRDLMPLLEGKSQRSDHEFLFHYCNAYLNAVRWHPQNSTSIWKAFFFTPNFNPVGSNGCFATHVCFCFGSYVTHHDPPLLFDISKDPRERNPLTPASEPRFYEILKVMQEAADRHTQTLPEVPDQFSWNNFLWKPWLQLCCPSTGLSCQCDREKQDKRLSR

[3] = target: T1, Steryl-sulfatase (Homo sapiens); test: Inhibitory activity against estrone sulfatase relative to Estrone-3-sulfamate (EMATE)
[4] = target: T1, Steryl-sulfatase (Homo sapiens)
Description: Inhibitory activity against estrone sulfatase expressed as potency

| SMILES | logP [1] | Potency [2] | Potency [3] | Potency [4] |
| --- | --- | --- | --- | --- |
| NS(=O)(=O)Oc1ccc(C(=O)/C=C/c2ccccc2)cc1 | 3.4 | 0.0456 | 0.0019 |  |
| CC(=O)c1ccc(OS(N)(=O)=O)cc1 | 1.1 | 0.0397 | 0.0016 |  |
| CCCCCCCCC(=O)c1ccc(OS(N)(=O)=O)cc1 | 4.1 | 3.53 | 0.147 |  |
| CCCCC(=O)c1ccc(OS(N)(=O)=O)cc1 | 2.5 | 0.574 | 0.0239 |  |
| C[C@]12CC[C@@H]3c4ccc(OS(N)(=O)=O)cc4CCC3[C@@H]1CCC2=O (single isomer, unassigned) [EMATE] | 3.9 | 24 |  | 1 |
| NS(=O)(=O)Oc1ccc(C=O)cc1 | 1.4 | 0.0472 | 0.0019 |  |
| CCCCCCC(=O)c1ccc(OS(N)(=O)=O)cc1 | 3.3 | 2.4 | 0.1 |  |
| CCCCCCCC(=O)c1ccc(OS(N)(=O)=O)cc1 | 3.7 | 2.14 | 0.0893 |  |
| NS(=O)(=O)Oc1ccc(C(=O)c2ccccc2)cc1 | 2.9 | 0.191 | 0.0079 |  |
| NS(=O)(=O)Oc1ccc(C(=O)Cc2ccccc2)cc1 | 2.9 | 0.364 | 0.0152 |  |
| CCCCCCCCCC(=O)c1ccc(OS(N)(=O)=O)cc1 | 4.4 | 0.923 | 0.0385 |  |
| Cc1cc(=O)oc2cc(OS(N)(=O)=O)ccc12 | 1.7 |  | 0.0417 | 1 |
| CCCC(=O)c1ccc(OS(N)(=O)=O)cc1 | 2.1 | 0.301 | 0.0126 |  |
